From patent publication US8597692B2, “Cocoa extract and use thereof” (Barry Callebaut AG, priority 2007, dated 2013)

Tests used:
[1] = system: Male Wistar-Unilever rats; test: Forced swimming test in rat model for depression (Example 1); format: in vivo
Experimental: Male Wistar-Unilever rats (HsdCpb:WU) (Harlan, Horst, The Netherlands), weighing 200 to 225 g are weighed and randomly divided into 4 groups (n=12). Cocoa extract according to the invention comprising by weight 54-58% polyphenols, 8-9% theobromine, and 0.5-1.5% phenylethylamine is dissolved in spring water and stirred until homogenization just before its administration at the doses of 24 and 48 mg/kg BW, PO, in a volume of administration of 10 ml/kg BW.
The test product is orally administered for 14 days twice a day (2×12 and […]) in the morning and in the afternoon Imipramine (Sigma, France) was stored at room temperature and prepared fresh before testing. It is dissolved in spring water and stirred until homogenization just before its administration at a dose of 15 mg/kg BW, PO, in a volume of administration of 10 ml/kg. Imipramine is administered once a day.
(§1) An open field (40 cm high×60 cm in diameter) divided into 9 areas (8 equal squares and the central zone) is used for the measurement of locomotor and behavioral activity, to exclude the possibility that immobility is due to locomotion problems. The experimental devices for the forced swimming test are plexiglas cylinders (50 cm high×20 cm in diameter) filled to 30 cm depth with water at 25° C. In the slightly lit test room, a CCD-TV camera allows the rats to be observed and filmed on VHS-videotapes from a neighbouring room. During the experimental period, rats are weighed 3 times per week, i.e. Monday, Wednesday and Friday. Each rat is individually placed for 3 min in the center of the open field device 5 hours after the 13th treatment and 15 min before the forced swim test pretest session. This test is performed in order to test the effects of the products used on the locomotor activity of the animals and confirm that the results in the forced swim relate to the animal's mental state as opposed to locomotor ability. Immobility is defined as absence of swimming activity other than that necessary to keep the rat's head above the water. Imipramine (15 mg/kg BW, PO) is used as the antidepressant reference substance.
The test product and the vehicle are orally administered for 14 days, twice a day in the morning and in the afternoon. On D13, the products are administered just after the pretest session which lasted 15 minutes. On D14 the products are administered five hours and one hour prior to the forced swimming test. The test session lasts 5 minutes. The first five minutes of the initial 15-min swimming pretest and the 5-min swimming test session are videotaped for scoring the duration of immobility. Imipramine (15 mg/kg BW, PO) is used as the antidepressant reference substance.

[2] = system: Male Wistar-Unilever rats; test: Open field test of locomotor and behavioral activity (Example 1); format: in vivo, rat; conditions: 3 min, 5 hours after the 13th treatment; CPE 24 and 48 mg/kg, Imipramine 15 mg/kg PO
Experimental: as §1

[3] = Body weight during the experimental period (Example 1); format: in vivo, rat; conditions: 14-day treatment; CPE 24 and 48 mg/kg, Imipramine 15 mg/kg PO; IMI difference from D5 to D14
Experimental: as §1

## CN(C)CCCN1c2ccccc2CCc2ccccc21 [IMI, Imipramine]
[1]; 5-min test session, D14, 15 mg/kg BW PO once a day, n = 12
  duration of immobility, Test (Mean ± SEM): 10.33 ± 1.79
[1]; CPE 24 and 48 mg/kg, Imipramine 15 mg/kg PO
  change of duration of immobility from pretest to test session (paired t-test): significantly decreased
[1]; pretest session after a 13 day-period of treatment, Imipramine 15 mg/kg PO
  duration of immobility in comparison with vehicle, pretest session (Dunnett's t test): significantly reduced
[1]; pretest session, first 5 min, D13, 15 mg/kg BW PO once a day, n = 12
  duration of immobility, Pretest (Mean ± SEM): 21.25 ± 3.70
[1]; test session D14, CPE 24 and 48 mg/kg, Imipramine 15 mg/kg PO
  durations of immobility in comparison with vehicle, test session (Dunnett's t test): significantly reduced
[2]
  overt behavioral changes or motor dysfunction in the open field test: Neither administration of Imipramine nor CPE showed significant differences
[3]
  body weight compared with the other groups: significantly lower
